Reference: patent US12594344B2, “Production of exosomes and uses thereof” (CHINA MEDICAL UNIVERSITY, priority 2021, dated 2026)

Experiments:
[1] = system: MDA-MB-231 cells; experiment: Cytotoxicity of exosomes loaded with miRNA and DOX; format: cell-based; conditions: MDA-MB-231, after 24 h and 48 h
Method: The cell cultured on 96-well with Exo/CARExo for the collection of different time-points, the culture medium was collected and washed with PBS solution to remove any residual medium. Tetrazolium dye MTT (3-(4,5-dimethylthiazol-2-yl)-2,5-diphenyltetrazolium bromide) (Sigma-Aldrich) was mixed fresh medium with ratio of 1:9 and performed to assess for cell viability, which worked by acting on the respiratory chain. After 3 h of reaction, the MTT agent was removed and DMSO was added and left aside for 20 min to dissolve the formazan crystals and redistributed evenly into a 96-well. Absorbance was quantified by measuring at a wavelength of 570 nm to assess for cell viability.
Then, the present invention further increased the test group to six groups: Ctl, Drug, miR, CARExo, CARExo-Drug and CARExo-miR-Drug, to distinguish the validation of cancer cell killing efficacy (FIG. 10). […] Whereas CARExo or Drug only the effect was about 50%. It could be seen that the cocktail of exosomes can effectively and quickly kill cancer cells in the first time.

[2] = target: T1, YAP protein (Homo sapiens, UniProt P46937); experiment: YAP inhibitor treatment of HEK293T-laden auxetic scaffold under cyclic tensile stimulation; format: cell-based
T1 construct: endogenous in cells; host or cells: HEK293T
Excerpt: In the present invention, hydrogels with an auxetic structure were fabricated through a template moulding process. Considering that the cell-laden hydrogels with an auxetic structure should be compatible with a tensile bioreactor, three components were used to produce the construct: a Pluronic F-127 solution, GelMa, and cell-laden FGelMa. A positive mould was designed and printed using the BioX bioprinter (Cellink, Sweden) with the Pluronic F-127 (Sigma-Aldrich) solution at a concentration of 30 wt % in distilled water. […] For the mould printing, the stereolithography (STL) model was designed and developed using SolidWorks. The STL file was then converted into a g-code file, which was used to determine the movements and printing paths of the bioprinter, using sliver software. After housing the fugitive ink in a syringe barrel equipped with a luer-locked nozzle with an inner diameter of 150 μm, the fugitive ink was deposited on a glass slide by applying a pneumatic pressure at 170 kPa to form a filament with diameter of approximately 250 μm, using a syringe moving speed of 25 mm/s. The fugitive mould of the auxetic construct was fabricated layer-by-layer (150 μm per layer) until the final thickness of the construct reached 2.1 mm. […]

T1 sequence (P46937 whole entry): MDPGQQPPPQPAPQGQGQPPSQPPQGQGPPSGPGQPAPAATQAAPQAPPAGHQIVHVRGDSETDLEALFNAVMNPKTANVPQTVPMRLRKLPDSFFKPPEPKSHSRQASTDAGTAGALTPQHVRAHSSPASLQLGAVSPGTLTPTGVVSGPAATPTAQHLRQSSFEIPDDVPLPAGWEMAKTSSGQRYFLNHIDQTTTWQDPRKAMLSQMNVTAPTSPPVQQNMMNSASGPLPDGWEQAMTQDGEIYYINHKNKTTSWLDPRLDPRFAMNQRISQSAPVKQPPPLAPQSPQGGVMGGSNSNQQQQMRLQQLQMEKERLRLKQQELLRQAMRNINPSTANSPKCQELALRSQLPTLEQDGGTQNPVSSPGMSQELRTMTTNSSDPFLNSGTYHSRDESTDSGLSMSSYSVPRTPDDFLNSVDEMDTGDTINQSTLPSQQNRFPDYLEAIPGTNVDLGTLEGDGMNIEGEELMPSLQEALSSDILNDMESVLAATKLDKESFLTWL

Compound | cell killing effect [1] | cell morphology [2] | secretion of exosomes relative to the cyclic tensile stimulation group [2] [%]
COc1cccc2c1C(=O)c1c(O)c3c(c(O)c1C2=O)C[C@@](O)(C(=O)CO)C[C@@H]3O[C@H]1C[C@H](N)[C@H](O)[C@H](C)O1 [Drug, doxorubicin] | about 50% | – | –
Verteporfin | – | could not self-assemble to form three-dimensional spheroids | 5
